Measurements as given in PMC9324933 (Chemistry (Weinheim an Der Bergstrasse, Germany), 2022).

How the values were obtained:
[1] = N-octanol/water partition coefficient; format: physicochemical; settings: RP-TLC, MOPS pH 7.4/acetonitrile
[2] = Redox potentials by cyclic voltammetry and differential pulse voltammetry; format: physicochemical; settings: redox potential versus ferrocene/ferrocenium (FcH/FcH+); acetonitrile, 23 °C
A2780 cells = test: Viability of A2780 cells; format: cell-based; settings: read-out: IC50 A2780 cells; human ovarian cancer cells, 48 h, MTT
BL‐2 cells = test: Viability of BL-2 cells; format: cell-based; settings: read-out: IC50 BL‐2 cells; human Burkitt's lymphoma cells, 48 h, MTT

LogP [1]: 3.40
E1/2 [2]: 0 mV
IC50 (A2780 cells): > 50 µM
SMILES: [Fe+2].c1cc[cH-]c1.c1cc[cH-]c1 [FcH, ferrocene]
IC50 (BL‐2 cells): > 50 µM
